Laboratory results: patent US20030152512A1, “Imaging thrombus with glycoprotein llb/llla antagonists” (priority 2001, published 2003)
Non-standard residues stand in square brackets, D forms with d. Residues, ends and D or L forms follow the SMILES beside them. *: point of attachment. X1 = O=C(c1ccc(NN=Cc2ccccc2S(=O)(=O)O)nc1)*; NMeR = CN[C@@H](CCCNC(=N)N)C(=O)O; HYNIC = NNc1ccc(C(=O)*)cn1; 3Amb = NCc1cccc(C(=O)O)c1

What was measured:
venous thrombus = assay: Thrombus imaging in canine deep vein thrombosis (DVT) model, gamma scintigraphy (camera ROI); format: in vivo, dog; conditions: for efficacy as thrombus imaging agent (in words): dog DVT model; for Thrombus to Blood Ratio in DVT Model (Camera ROI) / Thrombus to Muscle Ratio in DVT Model (Camera ROI): dog
Method: (§1) Canine Deep Vein Thrombosis Model: This model incorporates the triad of events (hypercoagulatible state, period of stasis, low shear environment) essential for the formation of a venous fibrin-rich actively growing thrombus. The procedure was as follows: Adult mongrel dogs of either sex (9-13 kg) were anesthetized with pentobarbital sodium (35 mg/kg,i.v.) and ventilated with room air via an endotracheal tube (12 strokes/min, 25 ml/kg). For arterial pressure determination, the right femoral artery was cannulated with a saline-filled polyethylene catheter (PE-240) and connected to a Statham pressure transducer (P23ID; Oxnard, Calif.). Mean arterial blood pressure was determined via damping the pulsatile pressure signal. Heart rate was monitored using a cardiotachometer (Biotach, Grass Quincy, Mass.) triggered from a lead II electrocardiogram generated by limb leads. The right femoral vein was cannulated (PE-240) for drug administration. A 5 cm segment of both jugular veins was isolated, freed from fascia and circumscribed with silk suture. A microthermister probe was placed on the vessel which serves as an indirect measure of venous flow. A balloon embolectomy catheter was utilized to induce the 15 min period of stasis during which time a hypercoagulatible state was then induced using 5 U thrombin (American Diagnosticia, Greenwich Conn.) administered into the occluded segment. Fifteen minutes later, flow was reestablished by deflating the balloon. The radiopharmaceutical was infused during the first 5 minutes of reflow and the rate of incorporation monitored using gamma scintigraphy.

[1] = Blood clearance in canine deep vein thrombosis (DVT) model; conditions: both, mongrel, dog, iv
Method: as §1

Platelet GPIIb/IIIa = molecular target: T1, Platelet GPIIb/IIIa (Canis lupus familiaris, UniProt A0A8I3N5G5+A0A8I3PMU9); assay: Platelet GPIIb/IIIa binding assay (inhibition of 125I-fibrinogen binding to activated platelets); conditions: reagents (compounds of Examples 1-3); activated canine platelets
T1 construct: from tissue
T1 sequence (A0A8I3N5G5 1-1047): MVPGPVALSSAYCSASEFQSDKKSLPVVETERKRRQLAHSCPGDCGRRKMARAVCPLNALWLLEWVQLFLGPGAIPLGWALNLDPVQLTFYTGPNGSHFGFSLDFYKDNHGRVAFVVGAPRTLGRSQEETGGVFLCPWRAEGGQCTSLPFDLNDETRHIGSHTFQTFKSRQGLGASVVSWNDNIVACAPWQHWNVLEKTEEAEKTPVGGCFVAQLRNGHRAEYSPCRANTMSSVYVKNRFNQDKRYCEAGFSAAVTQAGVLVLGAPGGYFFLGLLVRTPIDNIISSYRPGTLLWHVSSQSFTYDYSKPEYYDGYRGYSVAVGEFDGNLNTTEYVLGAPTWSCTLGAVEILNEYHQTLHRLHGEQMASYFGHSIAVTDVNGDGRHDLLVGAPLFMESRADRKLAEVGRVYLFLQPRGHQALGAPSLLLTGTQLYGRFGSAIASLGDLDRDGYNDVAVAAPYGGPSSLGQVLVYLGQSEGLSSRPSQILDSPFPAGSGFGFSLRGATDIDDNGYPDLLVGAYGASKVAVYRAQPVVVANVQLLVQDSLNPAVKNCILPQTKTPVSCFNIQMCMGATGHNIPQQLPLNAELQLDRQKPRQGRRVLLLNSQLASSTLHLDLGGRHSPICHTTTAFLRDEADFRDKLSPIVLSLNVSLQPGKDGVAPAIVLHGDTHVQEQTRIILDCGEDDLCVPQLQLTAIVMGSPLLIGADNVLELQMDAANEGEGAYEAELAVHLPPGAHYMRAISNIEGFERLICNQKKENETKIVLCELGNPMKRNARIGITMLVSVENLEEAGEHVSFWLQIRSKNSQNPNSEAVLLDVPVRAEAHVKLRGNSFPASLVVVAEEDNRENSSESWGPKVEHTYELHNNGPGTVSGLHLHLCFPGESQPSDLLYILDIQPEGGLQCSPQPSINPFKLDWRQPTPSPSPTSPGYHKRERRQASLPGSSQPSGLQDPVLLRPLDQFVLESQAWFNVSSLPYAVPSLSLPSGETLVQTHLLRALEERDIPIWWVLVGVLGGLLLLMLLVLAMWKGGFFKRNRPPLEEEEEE
T1 sequence (A0A8I3PMU9 1-919): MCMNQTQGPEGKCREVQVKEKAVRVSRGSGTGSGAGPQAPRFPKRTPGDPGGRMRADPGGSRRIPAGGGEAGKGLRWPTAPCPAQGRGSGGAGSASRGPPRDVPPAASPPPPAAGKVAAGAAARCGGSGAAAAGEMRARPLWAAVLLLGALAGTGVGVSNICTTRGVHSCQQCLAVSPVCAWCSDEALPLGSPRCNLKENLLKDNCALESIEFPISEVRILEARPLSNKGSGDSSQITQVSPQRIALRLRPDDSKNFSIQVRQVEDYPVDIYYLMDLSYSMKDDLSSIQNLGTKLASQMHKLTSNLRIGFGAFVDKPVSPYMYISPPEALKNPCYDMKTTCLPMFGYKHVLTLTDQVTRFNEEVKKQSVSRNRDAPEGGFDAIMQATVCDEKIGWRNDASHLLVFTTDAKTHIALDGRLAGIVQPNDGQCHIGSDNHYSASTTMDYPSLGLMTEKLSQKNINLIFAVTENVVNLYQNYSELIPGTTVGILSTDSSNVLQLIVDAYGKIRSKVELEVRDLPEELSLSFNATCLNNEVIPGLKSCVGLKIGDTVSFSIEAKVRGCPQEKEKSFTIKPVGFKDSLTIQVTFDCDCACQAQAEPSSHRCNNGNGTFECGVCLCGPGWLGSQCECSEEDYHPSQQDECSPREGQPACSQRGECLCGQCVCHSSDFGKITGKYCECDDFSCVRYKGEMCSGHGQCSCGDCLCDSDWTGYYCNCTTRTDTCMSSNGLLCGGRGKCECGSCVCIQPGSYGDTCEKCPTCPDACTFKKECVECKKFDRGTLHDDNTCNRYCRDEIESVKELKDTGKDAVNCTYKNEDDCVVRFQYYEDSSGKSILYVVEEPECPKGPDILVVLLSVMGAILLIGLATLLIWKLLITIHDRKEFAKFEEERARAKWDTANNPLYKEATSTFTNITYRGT
Method: Platelet GPIIb/IIIa Binding Assay:
During isolation, platelets were rendered quiescent by the addition of aspirin and when appropriate, primed by the addition of PGE 1. Experimentation was completed in a microtiter format with final concentrations between 1 and 2×10^7 platelets/well. Platelets were activated by the addition of CaCl2 (2 mM) and thrombin (0.2 U/mL) while non-activated platelets received buffer. Hirudin (0.5 U/mL) was added to stop the activation reaction.

Row | SMILES | efficacy as thrombus imaging agent (in words) (venous thrombus) | Thrombus to Blood Ratio in DVT Model (Camera ROI) (venous thrombus; time 30 min) | Thrombus to Muscle Ratio in DVT Model (Camera ROI) (venous thrombus; time 30 min) | Thrombus to Blood Ratio in DVT Model (Camera ROI) (venous thrombus; time 120 min) | Thrombus to Muscle Ratio in DVT Model (Camera ROI) (venous thrombus; time 120 min) | tissue uptake at 0 h [1] | tissue uptake at 0.25 h [1] | tissue uptake at 0.5 h [1] | tissue uptake at 1 h [1] | tissue uptake at 1.5 h [1] | tissue uptake at 2 h [1] | IC50 (Platelet GPIIb/IIIa) | also measured
1 | CC(C)[C@H]1NC(=O)c2cc(cc(CNC(=O)[C@H](CC(=O)O)NC(=O)c3ccc(NN)nc3)c2)CNC(=O)[C@H](CC(=O)O)NC(=O)CNC(=O)[C@H](CCCNC(=N)N)N(C)C1=O (99mTc complex, metal not drawn) [Example 4] | effective thrombus imaging agents | 2.29 ± 0.60 | 4.31 ± 1.33 | 3.36 ± 0.99 | 4.70 ± 1.05 | 0.141 %ID/g | 0.07 %ID/g | 0.067 %ID/g | 0.053 %ID/g | 0.046 %ID/g | 0.045 %ID/g |  | Thrombus to Blood Ratio in DVT Model (Camera ROI) (venous thrombus; time 15 min, listed as Ex. 4): 2.00 ± 0.25; Thrombus to Muscle Ratio in DVT Model (Camera ROI) (venous thrombus; time 15 min, listed as Ex. 4): 3.18 ± 0.45; Thrombus to Blood Ratio in DVT Model (Camera ROI) (venous thrombus; time 60 min, listed as Ex. 4): 2.86 ± 0.31; Thrombus to Muscle Ratio in DVT Model (Camera ROI) (venous thrombus; time 60 min, listed as Ex. 4): 4.31 ± 0.79
2 | CN1C(=O)[C@@H](CCCCNC(=O)c2ccc(NN)nc2)NC(=O)c2cccc(c2)CNC(=O)[C@H](CC(=O)O)NC(=O)CNC(=O)[C@@H]1CCCNC(=N)N (99mTc complex, metal not drawn) [Example 5] (cyclo([NMeR]GD[3Amb][dK](HYNIC))) | effective thrombus imaging agents | 1.86 ± 0.23 | 2.27 ± 0.29 | 2.57 ± 0.25 | 3.34 ± 0.18 | 0.11 ± 0.01 %ID/g | 0.039 ± 0.003 %ID/g | 0.027 ± 0.003 %ID/g | 0.021 ± 0.002 %ID/g | 0.018 ± 0.002 %ID/g | 0.017 ± 0.002 %ID/g |  | Thrombus to Blood Ratio in DVT Model (Camera ROI) (venous thrombus; time 15 min, listed as Ex. 5): 1.64 ± 0.21; Thrombus to Muscle Ratio in DVT Model (Camera ROI) (venous thrombus; time 15 min, listed as Ex. 5): 2.12 ± 0.29; Thrombus to Blood Ratio in DVT Model (Camera ROI) (venous thrombus; time 60 min, listed as Ex. 5): 2.13 ± 0.23; Thrombus to Muscle Ratio in DVT Model (Camera ROI) (venous thrombus; time 60 min, listed as Ex. 5): 2.66 ± 0.29
3 | CC(C)[C@H]1NC(=O)c2cc(cc(CNC(=O)[C@H](CC(=O)O)NC(=O)c3ccc(N/N=C/c4ccccc4S(=O)(=O)O)nc3)c2)CNC(=O)[C@H](CC(=O)O)NC(=O)CNC(=O)[C@H](CCCNC(=N)N)N(C)C1=O [Example 1] |  |  |  |  |  |  |  |  |  |  |  | 7 nM | 
4 | CN1C(=O)[C@@H](CCCCNC(=O)c2ccc(NN=Cc3ccccc3S(=O)(=O)O)nc2)NC(=O)c2cccc(c2)CNC(=O)[C@H](CC(=O)O)NC(=O)CNC(=O)[C@@H]1CCCNC(=N)N [Example 2, cyclo{N-Me-Arg-Gly-Asp-Mamb-D-Lys([2-[[[5-[carbonyl]-2-pyridinyl]hydrazono]methyl]-benzenesulfonic acid])}] (cyclo([NMeR]GD[3Amb][dK](X1))) |  |  |  |  |  |  |  |  |  |  |  | 14 nM | 
5 | N=C(N)c1ccc(C2=NOC(CC(=O)NCC(NC(=O)c3ccc(NN=Cc4ccccc4S(=O)(=O)O)nc3)C(=O)O)C2)cc1 (stereo not drawn) [Example 3] |  |  |  |  |  |  |  |  |  |  |  | 66 nM | 
6 | CC(C)[C@H]1NC(=O)c2cc(cc(NC(=O)CCCCCNC(=O)c3ccc(NN)nc3)c2)CNC(=O)[C@H](CC(=O)O)NC(=O)CNC(=O)[C@H](CCCNC(=N)N)N(C)C1=O [Example 7, ^99mTc(cyclo(D-Val-NmeArg-Gly-Asp-Mamb(hydrazino-nicotinyl-5-Aca)))(tricine)(TPPTS), metal not drawn] | effective thrombus imaging agents | 3.10 ± 0.42 | 4.80 ± 0.38 | 6.60 ± 1.42 | 9.90 ± 2.64 | 0.119 ± 0.003 %ID/g | 0.08 ± 0.003 %ID/g | 0.066 ± 0.004 %ID/g | 0.059 ± 0.001 %ID/g | 0.05 ± 0.002 %ID/g | 0.049 ± 0.001 %ID/g |  | Thrombus to Blood Ratio in DVT Model (Camera ROI) (venous thrombus; time 15 min, listed as Ex. 7): 2.10 ± 0.10; Thrombus to Muscle Ratio in DVT Model (Camera ROI) (venous thrombus; time 15 min, listed as Ex. 7): 3.40 ± 0.30; Thrombus to Blood Ratio in DVT Model (Camera ROI) (venous thrombus; time 60 min, listed as Ex. 7): 5.30 ± 0.91; Thrombus to Muscle Ratio in DVT Model (Camera ROI) (venous thrombus; time 60 min, listed as Ex. 7): 7.00 ± 1.40
